This assay addresses T1, α-galactosidase (GLA) (Homo sapiens, UniProt P06280).
T1 construct: endogenous in cells; host or cells: human cells (HEK293T; a subset of probes also in K562)
T1 sequence (P06280 32-429): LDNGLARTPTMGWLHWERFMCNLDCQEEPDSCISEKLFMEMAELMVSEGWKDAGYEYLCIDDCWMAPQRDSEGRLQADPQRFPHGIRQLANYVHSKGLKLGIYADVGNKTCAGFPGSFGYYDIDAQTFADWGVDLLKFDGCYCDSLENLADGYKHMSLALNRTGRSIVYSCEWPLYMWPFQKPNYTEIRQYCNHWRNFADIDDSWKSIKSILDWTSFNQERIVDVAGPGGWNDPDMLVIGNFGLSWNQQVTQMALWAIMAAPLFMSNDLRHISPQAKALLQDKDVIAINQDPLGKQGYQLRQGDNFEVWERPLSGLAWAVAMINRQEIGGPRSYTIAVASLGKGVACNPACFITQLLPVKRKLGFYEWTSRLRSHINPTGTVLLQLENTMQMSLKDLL
Kind of assay: Mapping of FFF probe-modified peptides on α-galactosidase (GLA). The format is binding. Conditions: near the active site and a secondary ligand binding site, respectively. On the procedure:
Preparation and analysis was adapted from methods previously reported. In brief, for global mapping of fragment probe-modified peptides, separate 10 cm dishes of cells were treated with probes (200-250 μM) in 3.0 mL of DMEM (serum-free) and (if applicable) competitor ligands, proteomes harvested and subjected to click chemistry conditions with either light or heavy isotopically labeled biotin-TEV-azide (10 μL of 5 mM stocks in DMSO, final concentration=100 μM), TCEP, ligand and CuSO4 as detailed above. The samples were allowed to react for 1 h at which point the samples were centrifuged (16,000 g, 5 min, 4° C.). The resulting pellets were sonicated in ice-cold methanol (500 μL) and the resuspended light- and heavy-labeled samples were then combined and centrifuged (16,000 g, 5 min, 4° C.). The pellets were then solubilized in PBS containing 1.2% SDS (1 mL) with sonication and heating (5 min, 95° C.). Samples were transferred to falcon tubes containing DPBS (5 mL), to which a 100 μL of streptavidin-agarose beads slurry was added. After incubation, the beads (3 hr) were pelleted by centrifugation (1,400 g, 3 min) and were washed (2×10 mL PBS and 2×10 mL water). The beads were transferred to eppendorf tubes with 1 mL DPBS, centrifuged (1,400 g, 3 min), and resuspended in PBS containing 6 M urea. To this was added 10 mM DTT (25 μL of a 200 mM stock in water) and the beads were incubated at 65° C. for 15 mins. 20 mM iodoacetamide (25 μL of a 400 mM stock in water) was then added and allowed to react at 37° C. for 30 mins with shaking. The bead mixture was diluted with 900 μL PBS, pelleted by centrifugation (1,400 g, 3 min), and resuspended in 200 μL 2M urea (DPBS) containing trypsin and CaCl2 as described above. The beads were separated from the digest by centrifugation (1,000 g, 1 min), washed (2×1 mL PBS and 2×1 mL water) and then transferred to fresh eppendorfs with 1 mL water. The washed beads were washed once further in 150 μL TEV buffer (50 mM Tris, pH 8, 0.5 mM EDTA, 1 mM DTT) by centrifugation (1,400 g, 3 min) and the resuspended in 150 μL TEV buffer. 5 μL TEV protease (80 μM) was added and the reactions were rotated overnight at 29° C. The TEV digest was separated from the beads by centrifugation (1,400 g, 3 min) and the beads were washed once with water (100 μL). The samples were then acidified to a final concentration of 5% (v/v) formic acid and stored at −80° C. prior to analysis.
The resulting probe-modified peptides were collected for MS analysis, which was performed as described above with differences in the salt bumps applied in the chromatographic gradients which in this case were 0%, 30%, 60%, 90% and 100% NH4OAc (500 μM). […] The isoTOP ratios for probe labeled peptides were quantified using the in-house software CIMAGE. […]

“Also recorded” adds a separate entry of the source.

With `C#CCCC1(CCC(=O)Nc2ccc(C3CCNCC3)cc2)N=N1` [probe 9, 3-(3-(But-3-yn-1-yl)-3H-diazirin-3-yl)-N-(4-(piperidin-4-yl)phenyl)propanamide], the “probe-modified peptides in GLA” value is “aa 50-68; also recorded: aa 241-253”.
